Test results as given in ChEMBL document CHEMBL3885861, “Open TG-GATES”.

Species on record: Rattus norvegicus
Experiment: Open TG-GATES - Regimen: Single
Format: toxicity, organism-based, Sprague-Dawley
Parameters: regimen Single, gender Male, age 6 weeks
Details: in vivo, po, 10 mg/kg, route gavage, dose level Low; for APTT / Bas / Eos / Fbg / Hb / Ht / Lym / MCH / MCHC / MCV / Mono / Neu / PT / Plat / RBC / Ret / WBC: tissue Blood; for A/G / ALP / ALT / AST / BUN / CRE / Ca / Cl / DBIL / GLC / IP / K / LDH / Na / PL / RALB / TBIL / TC / TG / TP / gamma-GTP: tissue Plasma

With `Cn1cc[nH]c1=S` [METHIMAZOLE] the TERMINAL_BW (3 h) was 213.6 g, the APTT (3 h) was 21.5 s and the Bas (3 h) was 0%. The Eos (3 h) was 0.4%, the Fbg (3 h) was 291.6 mg/dL and the Hb (3 h) was 13.5 g/dL. The Ht (3 h) was 38.3%, the Lym (3 h) was 81.6% and the MCH (3 h) was 22.1 pg. The MCHC (3 h) was 35.3%, the MCV (3 h) was 62.6 fL and the Mono (3 h) was 2%. For the same compound, the Neu (3 h) was 15.2%, the PT (3 h) was 15.4 s and the Plat (3 h) was 123.9 x10_4/uL. For the same compound, the RBC (3 h) was 611.8 x10_4/ul, the Ret (3 h) was 8.4% and the WBC (3 h) was 93.7 x10_2/uL. The A/G (3 h) was 1.3, the ALP (3 h) was 1742.6 IU/L and the ALT (3 h) was 42 IU/L. For the same compound, the AST (3 h) was 72.4 IU/L, the BUN (3 h) was 13.8 mg/dL and the CRE (3 h) was 0.1 mg/dL. For the same compound, the Ca (3 h) was 10.6 mg/dL, the Cl (3 h) was 106.6 meq/L and the DBIL (3 h) was 0 mg/dL. The GLC (3 h) was 179 mg/dL, the IP (3 h) was 8.9 mg/dL and the K (3 h) was 4.2 meq/L. It also gave an LDH (3 h) of 206 IU/L, a Na (3 h) of 141.2 meq/L and a PL (3 h) of 141.4 mg/dL. The RALB (3 h) was 3 g/dL, the TBIL (3 h) was 0.006 mg/dL and the TC (3 h) was 77 mg/dL. It also gave a TG (3 h) of 74.4 mg/dL, a TP (3 h) of 5.4 g/dL and a gamma-GTP (3 h) of 1.2 IU/L. For the same compound, the TERMINAL_BW (6 h) was 213.5 g, the APTT (6 h) was 20.7 s and the Bas (6 h) was 0%. For the same compound, the Eos (6 h) was 1%, the Fbg (6 h) was 279.8 mg/dL and the Hb (6 h) was 13.6 g/dL. The Ht (6 h) was 38.5%, the Lym (6 h) was 78.2% and the MCH (6 h) was 21.7 pg. For the same compound, the MCHC (6 h) was 35.2%, the MCV (6 h) was 61.8 fL and the Mono (6 h) was 2.2%. It also gave a Neu (6 h) of 18%, a PT (6 h) of 16.1 s and a Plat (6 h) of 103 x10_4/uL. It also gave an RBC (6 h) of 624.6 x10_4/ul, a Ret (6 h) of 8.8% and a WBC (6 h) of 85.4 x10_2/uL. For the same compound, the A/G (6 h) was 1.2, the ALP (6 h) was 1761.8 IU/L and the ALT (6 h) was 44.2 IU/L. It also gave an AST (6 h) of 75.8 IU/L, a BUN (6 h) of 10.4 mg/dL and a CRE (6 h) of 0.1 mg/dL. For the same compound, the Ca (6 h) was 10.6 mg/dL, the Cl (6 h) was 106.4 meq/L and the DBIL (6 h) was 0 mg/dL. The GLC (6 h) was 185.2 mg/dL, the IP (6 h) was 9.3 mg/dL and the K (6 h) was 4.3 meq/L. The LDH (6 h) was 182.4 IU/L, the Na (6 h) was 141 meq/L and the PL (6 h) was 124.8 mg/dL. It also gave an RALB (6 h) of 2.8 g/dL, a TBIL (6 h) of 0.01 mg/dL and a TC (6 h) of 71.2 mg/dL. It also gave a TG (6 h) of 70.6 mg/dL, a TP (6 h) of 5.2 g/dL and a gamma-GTP (6 h) of 1 IU/L. For the same compound, the TERMINAL_BW (9 h) was 199.1 g, the APTT (9 h) was 21.1 s and the Bas (9 h) was 0%. For the same compound, the Eos (9 h) was 0.8%, the Fbg (9 h) was 299.4 mg/dL and the Hb (9 h) was 13.2 g/dL. It also gave a Ht (9 h) of 37.7%, a Lym (9 h) of 75.6% and an MCH (9 h) of 21.3 pg. It also gave an MCHC (9 h) of 35.2%, an MCV (9 h) of 60.6 fL and a Mono (9 h) of 1.6%. The Neu (9 h) was 21%, the PT (9 h) was 16.4 s and the Plat (9 h) was 124.5 x10_4/uL. It also gave an RBC (9 h) of 622.2 x10_4/ul, a Ret (9 h) of 7.7% and a WBC (9 h) of 78.9 x10_2/uL. The A/G (9 h) was 1.2, the ALP (9 h) was 1423.4 IU/L and the ALT (9 h) was 38.4 IU/L. The AST (9 h) was 71.2 IU/L, the BUN (9 h) was 10.8 mg/dL and the CRE (9 h) was 0.1 mg/dL. It also gave a Ca (9 h) of 10.5 mg/dL, a Cl (9 h) of 106.4 meq/L and a DBIL (9 h) of 0.002 mg/dL. For the same compound, the GLC (9 h) was 178.2 mg/dL, the IP (9 h) was 9.6 mg/dL and the K (9 h) was 4.5 meq/L. The LDH (9 h) was 154.8 IU/L, the Na (9 h) was 140.6 meq/L and the PL (9 h) was 133.2 mg/dL. The RALB (9 h) was 3 g/dL, the TBIL (9 h) was 0.01 mg/dL and the TC (9 h) was 76.8 mg/dL. For the same compound, the TG (9 h) was 65 mg/dL, the TP (9 h) was 5.5 g/dL and the gamma-GTP (9 h) was 1 IU/L. The TERMINAL_BW (24 h) was 223.9 g, the APTT (24 h) was 20.3 s and the Bas (24 h) was 0%. The Eos (24 h) was 0.8%, the Fbg (24 h) was 307.8 mg/dL and the Hb (24 h) was 14 g/dL. The Ht (24 h) was 39.8%, the Lym (24 h) was 79.8% and the MCH (24 h) was 21.7 pg. The MCHC (24 h) was 35.2%, the MCV (24 h) was 61.9 fL and the Mono (24 h) was 2.4%. For the same compound, the Neu (24 h) was 16.4%, the PT (24 h) was 15.6 s and the Plat (24 h) was 96.9 x10_4/uL. It also gave an RBC (24 h) of 643.8 x10_4/ul, a Ret (24 h) of 7.2% and a WBC (24 h) of 79.8 x10_2/uL. The A/G (24 h) was 1.3, the ALP (24 h) was 2168.2 IU/L and the ALT (24 h) was 55.2 IU/L. The AST (24 h) was 75 IU/L, the BUN (24 h) was 15.6 mg/dL and the CRE (24 h) was 0.1 mg/dL. For the same compound, the Ca (24 h) was 11 mg/dL, the Cl (24 h) was 106.2 meq/L and the DBIL (24 h) was 0 mg/dL. For the same compound, the GLC (24 h) was 180.6 mg/dL, the IP (24 h) was 6.9 mg/dL and the K (24 h) was 4.2 meq/L. The LDH (24 h) was 175 IU/L, the Na (24 h) was 142.2 meq/L and the PL (24 h) was 169.8 mg/dL. The RALB (24 h) was 3.1 g/dL, the TBIL (24 h) was 0.01 mg/dL and the TC (24 h) was 85.8 mg/dL. It also gave a TG (24 h) of 145.4 mg/dL, a TP (24 h) of 5.5 g/dL and a gamma-GTP (24 h) of 1 IU/L.
